Measured values: US9546150B2, “Substituted quinazolin-4-ones for inhibiting ubiquitin specific protease 7” (HYBRIGENICS SA, priority 2011, dated 2017)

Legend:
USP8 = biological target: T1, USP8 (Homo sapiens, UniProt P40818); experiment: GST-Ub52-Flag HTRF deubiquitinating enzyme assay, USP8
T1 sequence (P40818 1-1118): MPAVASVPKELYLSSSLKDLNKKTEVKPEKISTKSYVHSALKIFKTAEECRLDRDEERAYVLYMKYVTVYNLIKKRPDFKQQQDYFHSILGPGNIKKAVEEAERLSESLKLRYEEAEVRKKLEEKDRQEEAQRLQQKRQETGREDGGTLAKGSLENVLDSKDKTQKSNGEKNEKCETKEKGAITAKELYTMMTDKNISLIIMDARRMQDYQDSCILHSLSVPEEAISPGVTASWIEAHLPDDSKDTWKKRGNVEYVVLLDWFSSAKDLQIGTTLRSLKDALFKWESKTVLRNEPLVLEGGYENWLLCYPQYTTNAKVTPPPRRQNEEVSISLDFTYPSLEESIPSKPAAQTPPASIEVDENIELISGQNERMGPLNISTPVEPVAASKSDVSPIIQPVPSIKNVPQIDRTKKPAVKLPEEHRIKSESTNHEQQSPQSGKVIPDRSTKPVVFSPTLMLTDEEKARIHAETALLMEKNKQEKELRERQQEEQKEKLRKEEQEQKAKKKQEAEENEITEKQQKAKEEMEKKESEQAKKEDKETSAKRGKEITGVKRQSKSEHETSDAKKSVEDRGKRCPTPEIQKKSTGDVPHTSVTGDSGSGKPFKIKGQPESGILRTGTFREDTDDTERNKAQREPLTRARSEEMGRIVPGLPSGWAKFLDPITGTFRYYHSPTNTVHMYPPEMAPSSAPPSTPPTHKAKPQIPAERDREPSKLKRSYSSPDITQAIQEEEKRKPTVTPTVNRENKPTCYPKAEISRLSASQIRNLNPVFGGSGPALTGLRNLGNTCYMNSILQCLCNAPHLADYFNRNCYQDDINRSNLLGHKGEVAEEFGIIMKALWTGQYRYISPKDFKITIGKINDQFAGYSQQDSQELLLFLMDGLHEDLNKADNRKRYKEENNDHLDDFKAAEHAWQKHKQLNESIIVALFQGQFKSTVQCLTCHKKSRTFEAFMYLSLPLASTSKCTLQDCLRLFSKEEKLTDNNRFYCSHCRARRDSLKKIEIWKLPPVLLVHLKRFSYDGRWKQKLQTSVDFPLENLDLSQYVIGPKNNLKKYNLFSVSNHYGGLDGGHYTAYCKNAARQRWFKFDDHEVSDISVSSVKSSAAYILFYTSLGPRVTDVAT
Source text: The cDNA encoding USP8 was obtained by PCR amplification from placenta mRNA. USP8 cDNA was subcloned by PCR into a baculovirus expression vector (pFastBac-HT; Invitrogen). A cDNA encoding a mutated USP8 was generated by mutagenic PCR. […] The sequences were ascertained by sequencing of the entire open reading frame. Bacmids encoding USP8 were generated following DH10bac transposition. The corresponding bacmids were transfected into insect cells (Sf9). Viruses were recovered from culture supernatant and amplified twice. Insect cells (Sf9 or High Five; Invitrogen) were infected for 72 hours. […] Proteins were affinity purified on metal affinity resins (Talon Metal affinity resin; BD Biosciences). Bound materials were extensively washed in wash buffer (50 mM Sodium Phosphate pH 7.0; 300 mM NaCl; 10 mM imidazole; 0.5% Triton X-100; 10% glycerol) and eluted from the resin in 250 mM imidazole-containing wash buffer. Proteins were dialyzed in dialysis buffer (Tris HCl pH 7.6 20 mM; NaCl 200 mM; DTT 1 mM; EDTA 1 mM; 10% Glycerol).
A cDNA encoding the fusion protein between ubiquitin and the ribosomal protein L40 (ub52 or uba52 or ubiquitin-L40) was amplified from human RNA using a proprietary human placenta library. The cDNA was subcloned into a bacterial expression vector (pGEX-2T, GE Healthcare), including an additional flag tag at the carboxyl end of the encoded protein.
For production and purification of recombinant proteins, the plasmid pGEX-2T-Ub52-flag was transformed into E. coli BL21 (Stratagene), grown in LB medium supplemented with 100 mg/ml ampicillin (LB ampi) at 37° C. overnight and then diluted 1/100 in LB ampi. The cells were incubated at 37° C. until an A600=0.6-0.8 was reached. After induction with 0.1 mM isopropyl-β-D-thiogalactopyranoside (IPTG), the culture was incubated at 30° C. for 180 min.
Cells were harvested by centrifugation for 15 min at 7000×g at 4° C. Bacterial pellets were lysed in NETN (Tris HCl pH 8.0; EDTA 1 mM; NP40 0.5%; protease inhibitor cocktail, PMSF 1 mM) and briefly sonicated. Insoluble material was removed by centrifugation 30 min at 14000×g. […] Briefly, soluble fraction was incubated on Glutathione beads pre-equilibrated in NETN buffer+0.5% Milk for 120 min at 4° C. Flow Through was recovered. Beads were extensively washed: the last wash was performed in Tris HCl pH 7.6 20 mM; NaCl 100 mM; MgCl2 12 mM. Elutions were performed using 20 mM Reduced Glutathione in 50 mM Tris HCl pH 8.0, NaCl 120 mM. […] Elutions were dialysed over night at 4° C. in Tris HCl pH 7.6 20 mM; NaCl 50 mM; DTT 0.5 mM.
The use of GST-Ub52-Flag is based on the time-resolved measurement of fluorescence emitted by transfer in homogenous medium.
The assay is carried out on multiwell assay plates. The plates are analyzed on a PHERAstar fluorimeter (BMG) after an overnight incubation at 4° C.
The enzyme reaction is carried out by mixing GST-Ub52-flag solution with 5 μl of USP7 solution (200 pM final) or 5 μl of USP8 (400 pM final). This mixture is incubated for one hour at room temperature on a multiwell assay plate. […] The plate is read after an overnight incubation at 4° C. on a PHERAstar fluorimeter (BMG).
The decrease in the signal correlates with the increase in enzyme activity i.e. the cleavage of GST-Ub52-Flag substrate.
Data (mean values+/−standard deviation) were analyzed as % of control (no compound) and plotted as percentage versus the Log of the compound concentration using GraphPad (Prism).

UCH-L1 = biological target: T2, UCH-L1 (Homo sapiens, UniProt P09936); experiment: UCH-L1 activity assay, Ub-AMC substrate; type: biochemical; settings: UbAMC substrate 300 nM, UCH-L1 2.5 nM
T2 sequence (P09936 1-223): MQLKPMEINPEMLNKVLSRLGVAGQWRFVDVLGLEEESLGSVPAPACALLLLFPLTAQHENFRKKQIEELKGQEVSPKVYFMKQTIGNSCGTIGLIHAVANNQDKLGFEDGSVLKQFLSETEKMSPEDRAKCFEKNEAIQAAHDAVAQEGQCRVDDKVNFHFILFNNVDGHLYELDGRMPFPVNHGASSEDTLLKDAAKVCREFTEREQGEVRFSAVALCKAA
Protocol: UCH-L1 was diluted in USP buffer (50 mM Tris HCl; 0.5 mM EDTA; 5 mM DTT (Dithiothreitol); 0.01% Triton X-100; Bovine Serum Albumin 0.05 mg·ml^−1 pH7.6). Compounds stocks (100 mM) were stored at −20° C. in DMSO. Compounds were tested at different concentrations: from 200 μM to 91 nM.
(§1) Reactions were performed as duplicates in Black 384 well plates (small volume microplates; Greiner; 10 μl final reaction volume). The substrate concentration for UCH-L1 was 300 nM Ub-AMC (Boston Biochem). The concentration of the enzyme (UCH-L1) in specificity assays was 2.5 nM. The concentrations were determined in order to perform specificity assays under initial velocities at fixed substrate concentration. Compounds were pre-incubated with enzymes for 30 minutes at 25° C. Reactions were initiated by addition of substrate to the plates containing the enzymes (+/− compounds) diluted in assay buffer. Reactions were incubated for 60 minutes at 37° C. Reactions were stopped by adding acetic acid (100 mM final). Readings were performed on a Pherastar Fluorescent Reader (BMG). λ Emission 380 nm; λ Excitation=460 nm.

Caspase 3 = biological target: T3, Caspase 3 (Homo sapiens, UniProt P42574); experiment: Caspase 3 activity assay, Ac-DEVD-AMC substrate; type: biochemical; settings: Ac-DEVD-AMC 250 nM, Caspase 3 1.6 nM
T3 sequence (P42574 29-175 limits assumed): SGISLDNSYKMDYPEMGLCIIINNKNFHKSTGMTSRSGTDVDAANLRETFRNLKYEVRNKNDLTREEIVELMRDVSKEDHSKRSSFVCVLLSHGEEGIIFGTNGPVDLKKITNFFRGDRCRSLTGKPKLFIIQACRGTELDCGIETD
T3 sequence (P42574 176-277 limits assumed): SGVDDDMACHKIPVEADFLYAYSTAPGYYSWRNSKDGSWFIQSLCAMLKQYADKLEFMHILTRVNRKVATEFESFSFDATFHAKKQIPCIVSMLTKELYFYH
Protocol: Caspase 3 was diluted in Caspase 3 buffer (100 mM Hepes pH 7.5; 10% sucrose; 0.1% CHAPS). Compounds stocks (100 mM) were stored at −20° C. in DMSO. Compounds were tested at different concentrations: from 200 μM to 91 nM.
as §1, with “caspase 3 specificity assay” for “UCH-L1”, “250” for “300”, “(Ac-DEVD-AMC; Promega).” for “Ub-AMC (Boston Biochem).”, “(Caspase 3)” for “(UCH-L1)”, “1.6” for “2.5”

| Structure (SMILES) | IC50 (USP8) | IC50 (UCH-L1) | IC50 (Caspase 3) |
| --- | --- | --- | --- |
| O=C(CCc1ccccc1)N1CCC(O)(Cn2cnc3ccccc3c2=O)CC1 [Example 1, 3-{[4-hydroxy-1-(3-phenylpropanoyl)piperidin-4-yl]methyl}-3,4-dihydroquinazolin-4-one] | > 200 µM | > 200 µM | > 200 µM |
| O=C(CCc1ccccc1)N1CCC(O)(Cn2cnc3cc(Cl)ccc3c2=O)CC1 [Example 2, 7-chloro-3-{[4-hydroxy-1-(3-phenylpropanoyl)piperidin-4-yl]methyl}-3,4-dihydroquinazolin-4-one] | – | > 200 µM | > 200 µM |
| O=C(CCC1CCCC1)N1CCC(O)(Cn2cnc3cc(Cl)ccc3c2=O)CC1 [Example 4, 7-chloro-3-{[1-(3-cyclopentylpropanoyl)-4-hydroxypiperidin-4-yl]methyl}-3,4-dihydroquinazolin-4-one] | > 200 µM | > 200 µM | > 200 µM |
| CC(Cc1cccs1)C(=O)N1CCC(O)(Cn2cnc3ccccc3c2=O)CC1 (centres unmarked) [Example 5, 3-({4-hydroxy-1-[2-methyl-3-(thiophen-2-yl)propanoyl]piperidin-4-yl}methyl)-3,4-dihydroquinazolin-4-one] | > 200 µM | > 200 µM | > 200 µM |
| CC(Cc1cccs1)C(=O)N1CCC(O)(Cn2cnc3cc(Cl)ccc3c2=O)CC1 (centres unmarked) [Example 11, 7-chloro-3-({4-hydroxy-1-[2-methyl-3-(thiophen-2-yl)propanoyl]piperidin-4-yl}methyl)-3,4-dihydroquinazolin-4-one] | > 200 µM | > 200 µM | > 200 µM |
| CC(Cc1ccccc1)C(=O)N1CCC(O)(Cn2cnc3ccccc3c2=O)CC1 (centres unmarked) [Example 13, 3-{[1-(2-benzylpropanoyl)-4-hydroxypiperidin-4-yl]methyl}-3,4-dihydroquinazolin-4-one] | > 200 µM | > 200 µM | > 200 µM |
| CC(Cc1ccccc1)C(=O)N1CCC(O)(Cn2cnc3cc(Cl)ccc3c2=O)CC1 (centres unmarked) [Example 14, 3-{[1-(2-benzylpropanoyl)-4-hydroxypiperidin-4-yl]methyl}-7-chloro-3,4-dihydroquinazolin-4-one] | > 200 µM | > 200 µM | > 200 µM |

The remaining lines, values ahead:

| IC50 (USP8) | IC50 (UCH-L1) | IC50 (Caspase 3) | Structure (SMILES) |
| --- | --- | --- | --- |
| > 200 µM | > 200 µM | > 200 µM | O=C(CCC1CCCC1)N1CCC(O)(Cn2cnc3ccccc3c2=O)CC1 [Example 3, 3-{[1-(3-cyclopentylpropanoyl)-4-hydroxypiperidin-4-yl]methyl}-3,4-dihydroquinazolin-4-one] |
| > 200 µM | > 200 µM | > 200 µM | CC(C)C(=O)N1CCC(O)(Cn2cnc3ccccc3c2=O)CC1 [Example 6, 3-{[4-hydroxy-1-(2-methylpropanoyl)piperidin-4-yl]methyl}-3,4-dihydroquinazolin-4-one] |
| > 200 µM | > 200 µM | > 200 µM | COc1cc2ncn(CC3(O)CCN(C(=O)C(C)C)CC3)c(=O)c2cc1OC [Example 7, 3-{[4-hydroxy-1-(2-methylpropanoyl)piperidin-4-yl]methyl}-6,7-dimethoxy-3,4-dihydroquinazolin-4-one] |
| > 200 µM | > 200 µM | > 200 µM | CCC(CC)C(=O)N1CCC(O)(Cn2cnc3cc(Cl)ccc3c2=O)CC1 [Example 9, 7-chloro-3-{[1-(2-ethylbutanoyl)-4-hydroxypiperidin-4-yl]methyl}-3,4-dihydroquinazolin-4-one] |
| > 200 µM | > 200 µM | > 200 µM | COc1ccccc1CCC(=O)N1CCC(O)(Cn2cnc3ccccc3c2=O)CC1 [Example 10, 3-({4-hydroxy-1-[3-(2-methoxyphenyl)propanoyl]piperidin-4-yl}methyl)-3,4-dihydroquinazolin-4-one] |
| > 200 µM | > 200 µM | > 200 µM | O=C(CCc1cccs1)N1CCC(O)(Cn2cnc3ccccc3c2=O)CC1 [Example 12, 3-({4-hydroxy-1-[3-(thiophen-2-yl)propanoyl]piperidin-4-yl}methyl)-3,4-dihydroquinazolin-4-one] |
